*1 amine or outer side, *2 acyl side, *3 side chain or, on linkers, in order; H or OH if unused. Where no end group is shown, it is not given here. [ ]: non-standard residue; d: D form. γGlu = O=C(O)[C@H](CCC(=O)[*:2])N[*:1]; Abu = CC[C@H](N)C(=O)O
Biological target: T1, human calcium receptor (Homo sapiens, UniProt P41180)
T1 construct: expressed in transfected cells; host or cells: Xenopus laevis oocytes injected with receptor cRNA; the gene was amplified by PCR from human kidney cDNA (Clontech) and cloned in pBR322
T1 sequence (P41180 20-1078): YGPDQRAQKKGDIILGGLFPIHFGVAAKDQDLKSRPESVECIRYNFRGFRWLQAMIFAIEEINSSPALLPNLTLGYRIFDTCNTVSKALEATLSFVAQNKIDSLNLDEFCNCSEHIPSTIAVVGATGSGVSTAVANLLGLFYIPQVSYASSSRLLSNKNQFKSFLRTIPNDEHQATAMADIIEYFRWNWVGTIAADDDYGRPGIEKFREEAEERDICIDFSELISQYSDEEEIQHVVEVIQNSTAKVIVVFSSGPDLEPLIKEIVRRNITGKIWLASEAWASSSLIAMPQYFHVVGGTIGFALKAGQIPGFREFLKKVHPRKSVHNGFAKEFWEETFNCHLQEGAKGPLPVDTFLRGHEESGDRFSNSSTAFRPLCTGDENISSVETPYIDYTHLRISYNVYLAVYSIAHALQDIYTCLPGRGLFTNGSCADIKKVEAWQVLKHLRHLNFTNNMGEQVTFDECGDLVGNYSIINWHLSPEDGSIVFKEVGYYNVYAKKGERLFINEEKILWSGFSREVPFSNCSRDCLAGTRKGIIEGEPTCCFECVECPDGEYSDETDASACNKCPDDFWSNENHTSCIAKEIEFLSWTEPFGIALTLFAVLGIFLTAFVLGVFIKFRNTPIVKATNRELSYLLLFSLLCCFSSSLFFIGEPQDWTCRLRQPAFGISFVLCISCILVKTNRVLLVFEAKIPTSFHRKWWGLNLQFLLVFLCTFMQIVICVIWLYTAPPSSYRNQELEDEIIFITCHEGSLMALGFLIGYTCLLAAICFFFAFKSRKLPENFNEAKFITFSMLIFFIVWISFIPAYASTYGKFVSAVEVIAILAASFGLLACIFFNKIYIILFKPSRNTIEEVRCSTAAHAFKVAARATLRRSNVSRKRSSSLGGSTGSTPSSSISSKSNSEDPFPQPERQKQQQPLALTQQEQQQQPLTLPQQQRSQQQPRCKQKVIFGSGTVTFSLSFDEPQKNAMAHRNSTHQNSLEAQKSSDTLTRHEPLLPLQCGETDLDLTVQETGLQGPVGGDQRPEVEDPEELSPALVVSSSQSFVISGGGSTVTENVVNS
Assay: Calcium receptor-activating effect, Ca ion concentration-dependent Cl ionic current in Xenopus laevis oocyte expression system
Assay type: cell-based
Details: for Activity (lowest concentration at which current is detected): peptide added at 1,000 to 0.1 μM, Ca ion concentration-dependent Cl response current, oocytes voltage-clamped at −70 mV
Method: For evaluation of the calcium receptor-activating effect, Ca ion concentration-dependent Cl ionic current measuring method using a Xenopus laevis oocyte expression system was used. If activator is added to Xenopus laevis oocytes in which the calcium receptor is expressed, intracellular Ca ions increase. Then, the Ca ion concentration-dependent Cl channel opens, and the intracellular current value changes as an ionic current. By measuring the change in the intracellular current value, whether the calcium receptor-activating effect is present or not can be determined.
Specifically, the abdomen of Xenopus laevis was opened, and an egg batch was taken out and then treated with a 1% collagenase solution at 20° C. for 2 hours to obtain individual oocytes. Into each oocyte, 50 nl of 1 μg/μl receptor cRNA or 50 nl of sterilized water per oocyte were injected by using a micro glass capillary, and the oocytes were cultured at 18° C. for 2 to 3 days. For the culture, a solution obtained by adding 2 mM of pyruvic acid, 10 U/ml of penicillin and 10 μg/ml of streptomycin to the solution in Reference Example 2 was used. After the culture, a test solution was added to the oocytes injected with cRNA or sterilized water. Electrophysiological measurement was performed by using an amplifier Geneclamp 500 (manufactured by Axon) and recording software AxoScope 9.0 (manufactured by Axon). The oocytes were voltage-clamped at −70 mV by the double electrode voltage clamp method, and the intracellular current via the Ca ion concentration-dependent Cl ion was measured. The maximum value of the intracellular currents was defined as the response current value.
The ability of L-amino acids to activate the calcium receptor was evaluated by using the method described in Reference Example 6. That is, oocytes injected with cRNA of the calcium receptor or sterilized water were prepared, and voltage-clamped at −70 mV by the double electrode voltage clamp method. To the voltage-clamped oocytes, alanine (10 mM), arginine (10 mM), asparagine (10 mM), aspartic acid (10 mM), cysteine (10 mM), glutamine (10 mM), glutamic acid (10 mM), glycine (10 mM), histidine (10 mM), isoleucine (10 mM), leucine (10 mM), lysine (10 mM), methionine (10 mM), phenylalanine (10 mM), proline (10 mM), serine (10 mM), threonine (10 mM), tryptophan (10 mM), tyrosine (10 mM), valine (10 mM), ornithine (10 mM), taurine (10 mM) or hydroxyproline (10 mM) was added, and Ca ion concentration-dependent Cl response current was measured. […] 25, 2000, 97(9): 4814-9.
The effect of D-cysteine for activating a calcium receptor was evaluated by using the method described in Reference Example 6. That is, oocytes injected with cRNA of the calcium receptor or sterilized water were prepared, and voltage-clamped at −70 mV by the double electrode voltage clamp method. To the voltage-clamped oocytes, D-cysteine (10 mM), L-cysteine (10 mM), D-tryptophan (10 mM) or L-tryptophan (10 mM) was added, and Ca ion concentration-dependent Cl response current was measured.
The effect of peptide for activating calcium receptor was evaluated by using the method described in Reference Example 6. That is, oocytes injected with cRNA of the calcium receptor or sterilized water were prepared, and voltage-clamped at −70 mV by the double electrode voltage clamp method. To the voltage-clamped oocytes, γ-Glu-Cys-Gly (50 μM), γ-Glu-Cys(SNO)-Gly (50 μM), γ-Glu-Ala (50 μM), γ-Glu-Gly (500 μM), γ-Glu-Cys (50 μM), γ-Glu-Met (500 μM), γ-Glu-Thr (50 μM), γ-Glu-Val (50 μM), γ-Glu-Orn (500 μM), Asp-Gly (1 mM), Cys-Gly (1 mM), Cys-Met (1 mM), Glu-Cys (50 μM), Gly-Cys (500 μM) or Leu-Asp (1 mM) was added, and Ca ion concentration-dependent Cl response current was measured.
The ability of a peptide to activate calcium receptor was evaluated in the same manner as that of Reference Example 10.

N[C@@H](CCC(=O)N[C@@H](CS)C(=O)NCC(=O)O)C(=O)O [γ-Glu-Cys-Gly, reference compound]
effect for activating calcium receptor (Cl response current) (peptide added at 50 μM): definite effect for activating calcium receptor

[γGlu]-Val-Gly
Activity (lowest concentration at which current is detected): 0.1 µM

[γGlu]-[Abu]-Gly
Activity (lowest concentration at which current is detected): 3 µM
